“And” between values parts separate entries of the source, which are not always exact repeats. Equal entries are not always repeated.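 Results reflect a 48-hour exposure of cells in 96-well plates to compound at five concentrations. GI50 = concentration required for 50% inhibition of growth. Definition used: TGI = concentration required for complete inhibition of growth.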
Tests used:
Assay in all cases: growth of human tumour cells (NCI), 48 h
KM12 colon = system: KM12 colon
MDA-MB-231 breast = system: MDA-MB-231 breast
NCI-H226 lung = system: NCI-H226 lung
NCI-H23 lung = system: NCI-H23 lung
SNB-19 CNS = system: SNB-19 CNS
CAKI-1 renal = system: CAKI-1 renal
COLO 205 colon = system: COLO 205 colon
RPMI-8226 leukemia = system: RPMI-8226 leukemia
RXF 393 renal = system: RXF 393 renal
SF-539 CNS = system: SF-539 CNS

CCOC(=O)c1cc(C(=O)c2ccc(OC)c(OC)c2)n2c1ccc1ccc3cccnc3c12
GI50 (KM12 colon): 1.3 µM | TGI (KM12 colon): 80.7 µM | GI50 (MDA-MB-231 breast): 2.66 µM | TGI (MDA-MB-231 breast): > 100 µM | GI50 (NCI-H226 lung): 6.86 µM | TGI (NCI-H226 lung): > 100 µM | GI50 (NCI-H23 lung): 4 µM | TGI (NCI-H23 lung): > 100 µM | GI50 (SNB-19 CNS): 5.07 µM | TGI (SNB-19 CNS): > 100 µM

CN1CCCc2nc3ccccc3n2C1
TGI (CAKI-1 renal): > 100 µM | TGI (COLO 205 colon): > 100 µM | TGI (KM12 colon): > 100 µM | TGI (NCI-H226 lung): > 100 µM | TGI (NCI-H23 lung): > 100 µM | TGI (RPMI-8226 leukemia): 68.8 µM | TGI (RXF 393 renal): > 100 µM | TGI (SF-539 CNS): > 100 µM | TGI (SNB-19 CNS): > 100 µM

O=C(Nc1ccccc1C(=O)NC(=O)c1ccccc1NC(=O)c1ccccc1)c1ccccc1
TGI (CAKI-1 renal): 29.1 µM | TGI (COLO 205 colon): 2.87 µM | TGI (KM12 colon): 3.17 µM | TGI (NCI-H23 lung): 17.1 µM | TGI (RPMI-8226 leukemia): 8.23 µM | TGI (RXF 393 renal): 9.15 µM | TGI (SF-539 CNS): 18.9 µM | TGI (SNB-19 CNS): 24.8 µM

N#Cc1ccccc1Sc1ccccc1N
TGI (CAKI-1 renal): > 100 µM | TGI (COLO 205 colon): > 100 µM | TGI (KM12 colon): > 100 µM | TGI (NCI-H226 lung): 71.6 µM | TGI (NCI-H23 lung): > 100 µM | TGI (RXF 393 renal): > 100 µM | TGI (SF-539 CNS): > 100 µM | TGI (SNB-19 CNS): > 100 µM

CCCCCCCCCCCCCC(=O)O[C@H]1CC[C@H](NC(=O)[C@H](OC)[C@H](O)[C@@H](O)[C@H](O)/C=C/C(C)C)C(=O)N(C)C1
TGI (CAKI-1 renal): 0.668 µM | GI50 (KM12 colon): 0.00238 µM | TGI (KM12 colon): 15 µM and 2.96 µM | GI50 (NCI-H226 lung): 0.544 µM | GI50 (NCI-H23 lung): 0.00328 µM | TGI (NCI-H23 lung): 0.15 µM and 0.056 µM | GI50 (RPMI-8226 leukemia): 0.00392 µM | TGI (RPMI-8226 leukemia): 15 µM and 8.02 µM | GI50 (RXF 393 renal): 0.00238 µM | GI50 (SF-539 CNS): 0.0126 µM | TGI (SF-539 CNS): 15 µM and > 23.8 µM | GI50 (SNB-19 CNS): 0.0093 µM | TGI (SNB-19 CNS): 15 µM and > 23.8 µM

CCCCCCCCCC1CC(=O)OC23CCCC(=O)C12O3 (stereo unspecified)
TGI (CAKI-1 renal): > 100 µM | TGI (COLO 205 colon): > 100 µM | TGI (KM12 colon): > 100 µM | TGI (NCI-H226 lung): > 100 µM | TGI (NCI-H23 lung): > 100 µM | TGI (RPMI-8226 leukemia): > 100 µM | TGI (RXF 393 renal): > 100 µM | TGI (SF-539 CNS): > 100 µM | TGI (SNB-19 CNS): > 100 µM

Cc1ccc(-n2nc(C(OC3OC(CO)C(O)C(O)C3O)C(O)CO)c3nc4cc(C)c(C)cc4nc32)cc1 (stereo unspecified)
TGI (KM12 colon): > 100 µM | TGI (NCI-H23 lung): > 100 µM | TGI (RPMI-8226 leukemia): > 100 µM | TGI (RXF 393 renal): > 100 µM | TGI (SF-539 CNS): > 100 µM | TGI (SNB-19 CNS): > 100 µM

O=C([O-])c1ccc([I+]c2ccccc2)cc1
TGI (CAKI-1 renal): > 100 µM | TGI (COLO 205 colon): > 100 µM | TGI (KM12 colon): > 100 µM | TGI (NCI-H226 lung): > 100 µM | TGI (NCI-H23 lung): > 100 µM | TGI (RPMI-8226 leukemia): > 100 µM | TGI (RXF 393 renal): > 100 µM | TGI (SF-539 CNS): > 100 µM | TGI (SNB-19 CNS): > 100 µM

CCC(Oc1ccc(OC)c2c1C(=O)CCC2)C(=O)O (stereo unspecified)
TGI (COLO 205 colon): > 100 µM | TGI (KM12 colon): > 100 µM | TGI (NCI-H226 lung): > 100 µM | TGI (NCI-H23 lung): > 100 µM | TGI (RPMI-8226 leukemia): > 100 µM | TGI (RXF 393 renal): > 100 µM | TGI (SF-539 CNS): > 100 µM | TGI (SNB-19 CNS): > 100 µM

O=c1[nH]c2ccccc2cc1-c1nnc(Cc2ccccc2)o1
GI50 (CAKI-1 renal): 3.65 µM | TGI (CAKI-1 renal): 14.4 µM | GI50 (COLO 205 colon): 3.55 µM | TGI (COLO 205 colon): 13.2 µM | GI50 (KM12 colon): 10.4 µM | TGI (KM12 colon): 28.4 µM | GI50 (MDA-MB-231 breast): 3.29 µM | TGI (MDA-MB-231 breast): 14.7 µM | GI50 (NCI-H226 lung): 11.5 µM | TGI (NCI-H226 lung): 94.4 µM | GI50 (NCI-H23 lung): 11.3 µM | TGI (NCI-H23 lung): 39.5 µM | GI50 (RPMI-8226 leukemia): 1.94 µM | TGI (RPMI-8226 leukemia): 6.67 µM | GI50 (RXF 393 renal): 2.93 µM | TGI (RXF 393 renal): 10.9 µM | GI50 (SNB-19 CNS): 12.9 µM | TGI (SNB-19 CNS): 38.1 µM

Cc1nc2ccncc2[nH]1
TGI (CAKI-1 renal): > 100 µM | TGI (COLO 205 colon): > 100 µM | TGI (NCI-H226 lung): > 100 µM | TGI (NCI-H23 lung): > 100 µM | TGI (RXF 393 renal): > 100 µM | TGI (SF-539 CNS): > 100 µM | TGI (SNB-19 CNS): > 100 µM

O=C1OC(=O)c2c1nc1ccccc1c2-c1ccccc1
TGI (CAKI-1 renal): > 100 µM | TGI (COLO 205 colon): > 100 µM | TGI (KM12 colon): > 100 µM | TGI (NCI-H226 lung): > 100 µM | TGI (RPMI-8226 leukemia): > 100 µM | TGI (RXF 393 renal): > 100 µM | TGI (SF-539 CNS): > 100 µM | TGI (SNB-19 CNS): > 100 µM

COc1ccc([C@@]23Oc4cc(OC)cc(OC)c4[C@]2(O)[C@H](O)[C@H](C(=O)N(C)C)[C@H]3c2ccccc2)cc1
GI50 (CAKI-1 renal): 0.0218 µM | TGI (CAKI-1 renal): 0.225 µM and 0.692 µM and 0.262 µM | TGI (COLO 205 colon): 0.0197 µM | TGI (KM12 colon): 0.0892 µM and 0.281 µM | GI50 (MDA-MB-231 breast): 0.0231 µM | TGI (MDA-MB-231 breast): 0.049 µM and 0.00949 µM and 0.0756 µM | GI50 (NCI-H23 lung): 0.0152 µM | GI50 (RPMI-8226 leukemia): 0.0164 µM | GI50 (RXF 393 renal): 0.0178 µM | TGI (RXF 393 renal): 0.0823 µM and 0.0262 µM and 0.0785 µM | TGI (SF-539 CNS): 0.00512 µM and 0.0154 µM | GI50 (SNB-19 CNS): 0.0113 µM | TGI (SNB-19 CNS): 1.37 µM and 0.159 µM

CN(C)C1C(=O)C(C(N)=O)=C(O)C2(O)C(=O)C3=C(O)c4c(O)cccc4C(C)(O)C3CC12.[Cl][Sb]([Cl])[Cl] (stereo unspecified)
GI50 (CAKI-1 renal): 1.83 µM | TGI (CAKI-1 renal): 4.22 µM | GI50 (COLO 205 colon): 2.94 µM | TGI (COLO 205 colon): 9.17 µM | GI50 (KM12 colon): 3.7 µM | TGI (KM12 colon): 13.2 µM | GI50 (MDA-MB-231 breast): 4.3 µM | TGI (MDA-MB-231 breast): 15.3 µM | GI50 (NCI-H226 lung): 3.33 µM | TGI (NCI-H226 lung): 22 µM | GI50 (NCI-H23 lung): 3.3 µM | TGI (NCI-H23 lung): 12.2 µM | GI50 (RPMI-8226 leukemia): 2.41 µM | TGI (RPMI-8226 leukemia): 5.85 µM | GI50 (RXF 393 renal): 3.03 µM | TGI (RXF 393 renal): 10.7 µM

COS(=O)c1cc(Cl)cc(Cl)c1OC(=O)CSSCC(=O)Oc1c(Cl)cc(Cl)cc1S(=O)OC (stereo unspecified)
TGI (CAKI-1 renal): 63.1 µM | TGI (COLO 205 colon): 44.8 µM | TGI (KM12 colon): 36.2 µM | TGI (NCI-H23 lung): 27.8 µM | TGI (RPMI-8226 leukemia): 38.3 µM | TGI (RXF 393 renal): 43.7 µM | TGI (SF-539 CNS): 47.6 µM | TGI (SNB-19 CNS): 49.2 µM

O=C1C=CC2(CCC23C=CC(=O)O3)O1 (stereo unspecified)
TGI (COLO 205 colon): > 100 µM | TGI (KM12 colon): > 100 µM | TGI (NCI-H226 lung): > 100 µM | TGI (NCI-H23 lung): > 100 µM | TGI (RPMI-8226 leukemia): > 100 µM | TGI (RXF 393 renal): > 100 µM | TGI (SF-539 CNS): > 100 µM | TGI (SNB-19 CNS): > 100 µM

C=C1C(=O)O[C@@H]2C[C@@]3(C)[C@H](O)CCC(=C)[C@@H]3C[C@H]12
TGI (CAKI-1 renal): 19.6 µM | TGI (COLO 205 colon): 7.09 µM | TGI (KM12 colon): 14.4 µM | TGI (NCI-H226 lung): 25.7 µM | TGI (NCI-H23 lung): 25.5 µM | TGI (RPMI-8226 leukemia): 13.4 µM | TGI (SF-539 CNS): 23.6 µM | TGI (SNB-19 CNS): 46.9 µM

N#CC(C(=O)Nc1ccccc1)C1=C(Cl)C(=O)c2ccccc2C1=O (stereo unspecified)
TGI (CAKI-1 renal): 41.2 µM | TGI (COLO 205 colon): 37.3 µM | TGI (KM12 colon): 50.7 µM | TGI (NCI-H226 lung): 30.8 µM | TGI (NCI-H23 lung): 36.5 µM | TGI (RXF 393 renal): 31.4 µM | TGI (SF-539 CNS): 28.8 µM | TGI (SNB-19 CNS): 36.3 µM

CCCCCCCCCCCCCCCC(=O)OCC1OC(n2cc(F)c(=O)[nH]c2=O)C(NC(=O)OCc2ccccc2)C(O)C1O (stereo unspecified)
TGI (CAKI-1 renal): 33.8 µM | TGI (COLO 205 colon): 34 µM | TGI (KM12 colon): 45 µM | TGI (NCI-H23 lung): 43.6 µM | TGI (RPMI-8226 leukemia): 39.3 µM | TGI (SF-539 CNS): 30.9 µM | TGI (SNB-19 CNS): 32.4 µM

OC1=CN=C(c2ccccc2)Oc2ccccc21
TGI (COLO 205 colon): > 100 µM | TGI (KM12 colon): > 100 µM | TGI (NCI-H226 lung): 97.5 µM | TGI (NCI-H23 lung): > 100 µM | TGI (RPMI-8226 leukemia): > 100 µM | TGI (RXF 393 renal): > 100 µM | TGI (SF-539 CNS): 38.7 µM | TGI (SNB-19 CNS): > 100 µM

C#Cc1cccc(NC(=O)/C=C\C(=O)O)c1
TGI (CAKI-1 renal): > 100 µM | TGI (COLO 205 colon): > 100 µM | TGI (KM12 colon): > 100 µM | TGI (NCI-H226 lung): > 100 µM | TGI (NCI-H23 lung): > 100 µM | TGI (RPMI-8226 leukemia): > 100 µM | TGI (SNB-19 CNS): > 100 µM

From PubChem BioAssay (NCI)
